Among the test systems are 786-0; A498; A549; ACHN; EKVX; HOP-62; M14; Malme-3M; NCI-H460; SF-295; SK-MEL-5; SK-OV-3; SNB-75; TK-10; RPMI-8226; SR.
Test in all cases: NCI tumour cell line growth inhibition, 48 h

Data on 14 molecules can be found in ChEMBL document CHEMBL1201862, “PubChem BioAssay data set” (2004).

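Protocol summary: plate cells (96-well), add compound at 5 concentrations, incubate 48 h, interpolate endpoints linearly. GI50: concentration for 50% inhibition of growth.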 Calls of active or inactive are those of the source. No stated cut-off is given here; in the data, active = GI50 up to about 1.1 µM and inactive = higher.

Turning to `O=C1NC(=O)/C(=N\c2cccc3c(=O)[nH][nH]c(=O)c23)C(c2nc3ccccc3s2)C1=O` (stereo not drawn), the GI50 in the experiment on 786-0, in the experiment with A498, with A549, with ACHN, in the experiment on EKVX and in the experiment with HOP-62 was > 100 µM (inactive) in each case. Besides, the GI50 in the experiment with M14, in the experiment with Malme-3M, in the experiment with NCI-H460, with SF-295, in the experiment with SK-MEL-5 and in the experiment with SK-OV-3 was > 100 µM (inactive) each time. The GI50 in the experiment on SNB-75 and in the experiment with TK-10 was > 100 µM (inactive) each time.
Regarding `CS(=O)(=O)NNS(=O)(=O)c1ccc(F)cc1`, the GI50 in the experiment on 786-0, in the experiment with A498, in the experiment on A549, with ACHN, in the experiment with EKVX and in the experiment on HOP-62 was > 100 µM (inactive) each time. The GI50 in the experiment with M14, with Malme-3M, in the experiment on NCI-H460, in the experiment with RPMI-8226, in the experiment on SF-295 and with SK-MEL-5 was > 100 µM (inactive) in each case. Further, the GI50 with SNB-75, with SR and in the experiment on TK-10 was > 100 µM (inactive) in each case.
In the case of `CC1=C(C(=O)CC(=O)C(=O)Nc2cccc(C)c2C)Sc2ccccc2N1`, the GI50 in the experiment with 786-0, with A549, in the experiment with ACHN, in the experiment on EKVX, in the experiment with HOP-62 and in the experiment on M14 was > 100 µM (inactive) throughout. Moreover, the GI50 in the experiment with Malme-3M, in the experiment with NCI-H460, in the experiment with RPMI-8226, with SF-295, in the experiment on SK-MEL-5 and in the experiment on SK-OV-3 was > 100 µM (inactive) each time. Moreover, in the experiment with TK-10, the GI50 was > 100 µM (inactive).
On to `N=C(N)NS(=O)(=O)c1ccc(NC(=O)c2cccc3c(N)c4ccccc4nc23)cc1`, for which the GI50 in the experiment on 786-0, in the experiment on A498, in the experiment with A549, in the experiment on ACHN, in the experiment with EKVX and with HOP-62 was > 100 µM (inactive) throughout. In addition, the GI50 with M14, in the experiment with Malme-3M, in the experiment on NCI-H460, with RPMI-8226, in the experiment on SF-295 and in the experiment with SK-MEL-5 was > 100 µM (inactive) throughout. Moreover, the GI50 with SK-OV-3 was > 100 µM (inactive); with SNB-75 it was 96.2 µM (inactive); in the experiment on TK-10, > 100 µM (inactive).
Take `O=C(CC(=O)N1N=C(n2ccc3ccccc32)CC1c1ccccc1)Nc1cccc(Cl)c1` (stereo not drawn): the GI50 in the experiment on 786-0, in the experiment with A498, in the experiment on A549, in the experiment with ACHN, with EKVX and with HOP-62 was > 100 µM (inactive) in each case. The GI50 with M14, in the experiment on Malme-3M, in the experiment on NCI-H460, in the experiment with RPMI-8226, in the experiment with SF-295 and with SK-OV-3 was > 100 µM (inactive) throughout. The GI50 in the experiment on SNB-75 is 60.4 µM (inactive); in the experiment with TK-10, > 100 µM (inactive).
Consider `COC(=O)C1[C@H](c2cc(OC)c(OC)c(OC)c2)OC(=O)C1(C(=O)OC)C(=O)c1ccc2c(c1)OCO2` (stereo partly drawn), for which the GI50 with 786-0, in the experiment with A498, in the experiment on A549, in the experiment on ACHN, in the experiment with EKVX and with HOP-62 was > 100 µM (inactive) throughout. In addition, the GI50 in the experiment with M14, in the experiment on Malme-3M, with NCI-H460, in the experiment with RPMI-8226, in the experiment on SF-295 and in the experiment on SK-MEL-5 was > 100 µM (inactive) throughout. Moreover, the GI50 with SK-OV-3, in the experiment with SNB-75 and in the experiment with TK-10 was > 100 µM (inactive) throughout.
In the case of `O=C(NN1C(=O)C(Cl)C1c1cccc(Cl)c1)c1ccccc1O` (stereo not drawn), the GI50 in the experiment on 786-0, with A498, with A549, in the experiment with ACHN, in the experiment on M14 and with Malme-3M was > 100 µM (inactive) in each case. Further, the GI50 was > 100 µM (inactive) with NCI-H460; 68.4 µM (inactive) with SF-295; > 100 µM (inactive) in the experiment with SK-MEL-5; > 100 µM (inactive) in the experiment with SK-OV-3; > 100 µM (inactive) in the experiment with SNB-75; > 100 µM (inactive) in the experiment with TK-10.
Regarding `COc1ccccc1N1C(=O)C2c3[nH]c4ccccc4c3C3CCC(C(C)(C)C)CC3C2C1=O` (stereo not drawn), the GI50 in the experiment on 786-0, in the experiment with A498, in the experiment on A549, in the experiment on ACHN, in the experiment on EKVX and in the experiment with HOP-62 was > 100 µM (inactive) in each case. For the same molecule, the GI50 with M14, in the experiment with Malme-3M, with RPMI-8226, in the experiment with SF-295, with SK-MEL-5 and with SK-OV-3 was > 100 µM (inactive) throughout. Also, the figures for the GI50 with SNB-75 and in the experiment with SR were > 100 µM (inactive) and 97.1 µM (inactive), respectively.
With `COc1ccc(C2NC(c3ccc(OC)cc3)C(C)C(=O)C2C)cc1` (stereo not drawn), the GI50 was > 100 µM (inactive) in the experiment on 786-0; > 100 µM (inactive) in the experiment with A498; > 100 µM (inactive) in the experiment on ACHN; 67 µM (inactive) in the experiment with EKVX; > 100 µM (inactive) in the experiment on HOP-62; > 100 µM (inactive) with M14. The GI50 in the experiment on Malme-3M was > 100 µM (inactive); in the experiment on NCI-H460 it was > 100 µM (inactive); in the experiment with RPMI-8226 it was 34.2 µM (inactive); with SF-295 it was > 100 µM (inactive); with SK-OV-3 it was > 100 µM (inactive); in the experiment on SNB-75, 34 µM (inactive). Further, the GI50 in the experiment with TK-10 was > 100 µM (inactive).
Turning to `CCCCCCCCCCCCCS(=O)(=O)NCC(N)=O`, the GI50 in the experiment on 786-0, in the experiment with A498, in the experiment on A549, with ACHN, with EKVX and with HOP-62 was > 100 µM (inactive) in each case. The GI50 in the experiment on M14, with Malme-3M, in the experiment on NCI-H460, in the experiment on SF-295, in the experiment on SK-MEL-5 and with SK-OV-3 was > 100 µM (inactive) in each case. For the same molecule, the GI50 is 25.6 µM (inactive) with SNB-75 and > 100 µM (inactive) in the experiment with TK-10.
On to `CC(=O)/C(=C\c1ccccc1)C(=O)Nc1ccccc1`, for which the GI50 in the experiment on 786-0, with A549, in the experiment with ACHN, with EKVX, in the experiment with HOP-62 and in the experiment with M14 was > 100 µM (inactive) throughout. Further, the GI50 with Malme-3M is > 100 µM (inactive); with NCI-H460, > 100 µM (inactive); in the experiment on RPMI-8226, > 100 µM (inactive); in the experiment with SF-295 it was 44.1 µM (inactive); in the experiment with SK-MEL-5, > 100 µM (inactive); in the experiment on SK-OV-3, > 100 µM (inactive). The GI50 in the experiment with SR and in the experiment on TK-10 was > 100 µM (inactive) each time.
For `CCCC(C(=O)OC)C1N/C(=N/C#N)N(Cc2ccccc2)C1=O` (stereo not drawn), the GI50 in the experiment on 786-0, in the experiment with A549, with ACHN, in the experiment on EKVX, in the experiment on HOP-62 and in the experiment on M14 was > 100 µM (inactive) in each case. Moreover, the GI50 in the experiment with Malme-3M, in the experiment on NCI-H460, in the experiment on RPMI-8226, in the experiment on SF-295, in the experiment with SK-MEL-5 and in the experiment on SK-OV-3 was > 100 µM (inactive) throughout. In addition, the GI50 with SNB-75 is 22.9 µM (inactive); with SR, 91.2 µM (inactive); with TK-10, > 100 µM (inactive).
With `Cc1c2ccncc2c(C)c2c1[nH]c1ccc(OCC(F)(F)F)cc12`, the GI50 with 786-0 was 1.47 µM (inactive); in the experiment on A549 it was 1.79 µM (inactive); in the experiment with ACHN, 1.55 µM (inactive); with EKVX, 1.61 µM (inactive); in the experiment on HOP-62, 1.63 µM (inactive); in the experiment on M14 it was 1.96 µM (inactive). The GI50 with Malme-3M is 1.73 µM (inactive); with NCI-H460, 1.18 µM (inactive); with RPMI-8226, 2.27 µM (inactive); in the experiment on SF-295 it was 1.63 µM (inactive); with SK-MEL-5 it was 1.91 µM (inactive); with SK-OV-3 it was 1.82 µM (inactive). The figures for the GI50 in the experiment with SNB-75, with SR and in the experiment with TK-10 were 2.17 µM (inactive), 0.828 µM (active) and 2.1 µM (inactive), respectively.
In the case of `COc1cc2cnc3c4cc(O)ccc4ccc3c2cc1OC`, the GI50 in the experiment with 786-0 was 61.8 µM (inactive); in the experiment with A549, > 100 µM (inactive); in the experiment with ACHN, > 100 µM (inactive); with EKVX it was > 100 µM (inactive); in the experiment with HOP-62, 36.8 µM (inactive); in the experiment on M14, > 100 µM (inactive). Besides, the GI50 is 51.1 µM (inactive) in the experiment on Malme-3M; > 100 µM (inactive) in the experiment on NCI-H460; > 100 µM (inactive) in the experiment with RPMI-8226; 92.7 µM (inactive) in the experiment with SF-295; > 100 µM (inactive) with SK-MEL-5; > 100 µM (inactive) in the experiment with SK-OV-3. The GI50 in the experiment with SNB-75 is 22.6 µM (inactive); in the experiment on SR, 34.2 µM (inactive); in the experiment on TK-10, > 100 µM (inactive).
